# Experimental data from patent US9475841B2, “Melanoma antigen peptide and uses thereof” (INSERM (INSTITUT NATIONAL DE LA SANTE ET DE LA RECHERCHE …, priority 2012, dated 2016).
# Key:
# Assay type in all cases: cell-based, human
# [1] = tested on: MELOE-1 specific CD4+ T cells; experiment: MELOE-1 CD4+ T cell responses in PBMC from healthy donors: restimulation of microcultures with overlapping peptides, CD4/TNF-α staining; settings: for Microcultures containing MELOE-1 specific CD4+ T cells (TNF-α production): positive/tested microcultures; for donors in which CD4 responses against the region were detected: seven healthy donors
# Protocol: PBMC from healthy donors were stimulated with 10 μM of MELOE-1. After 14 days, the presence of CD4 T cells specific for the different regions of MELOE-1 was assessed by restimulating cells with MELOE-12-21, MELOE-111-30, MELOE-118-37 and MELOE-126-46 peptides, followed by CD4/TNF-α double staining and flow cytometry analysis. Between brackets is indicated the mean % of TNF-α producing CD4 T cells, in positive microcultures. NA: not available.
# (§1) PBMC from healthy donors or melanoma patients (2·10^5 cells/well) were cultured for 14 days with 10 μM of MELOE-1 whole antigen (46 amino acids) in RPMI medium supplemented with 8% HS, 50 IU/ml of rIL-2 (Chiron, France) and L-Glutamin, in 96-well multiplates. Microcultures were then restimulated individually with each overlapping peptide (MELOE-12-21, MELOE-111-30, MELOE-118-37, MELOE-12646 or MELOE-122-46 for melanoma patients) in the presence of 10 μg/mL brefeldin A for 5 hours and the percentage of CD4^+ specific T cells was assessed by TNF-α, IFN-γ or IL-4 intracellular staining. A negative control without peptide was included in all experiments.
# Our purpose was to look for the existence of class II helper epitopes all along MELOE-1 sequence (SEQ ID NO:20), in order to document the immunogenicity of the different regions of this melanoma antigen. We stimulated 2·10^7 PBMC from seven healthy donors with MELOE-1 whole antigen and tested, after a 14-day culture period the presence of CD4 T cells specific for each region of the protein. Microcultures were screened for TNFα production by CD4+ T cells, after restimulation with four MELOE-1 derived overlapping peptides (Table I), in an autopresentation assay. […] On the contrary, the central region 18-37, containing an already described DR11-restricted epitope (24-37) located just at the end of this 20-mer peptide (Rogel et al., 2011), induced specific responses in microcultures deriving from only 2/7 donors (HD9 and HD17, both expressing the DR11 element). In these two donors, we detected 6 and 7% of positive microcultures, containing between 0.6 to 3.7% of TNFα producing CD4 T cells.
# [2] = tested on: CD4 T cell clone 4E2-DQβ1*0201; experiment: Cytokine profile of CD4 T cell clone stimulated with cognate peptide (intracellular staining); settings: cognate peptide 10 μM, 5 hours
# Protocol: Lymphocytes were stimulated for 5 hours in the presence of brefeldin A (10 μg/mL) either with peptide alone (10 μM) in an autopresentation assay or with B-EBV or HLA-class II expressing melanoma cells pulsed 2 hours with the cognate peptide, at a ratio 1:2. In some experiments, blocking mAb against HLA-DP (clone B7.21 from Dr Charron, UMR940, Paris), HLA-DQ (clone SPVL3, Beckman Coulter) or HLA-DR (clone L243, BD Biosciences) were added at a concentration of 12.5 μg/ml. Cells were then stained with APC-conjugated anti-CD4 mAb, fixed with 4% paraformaldehyde, labeled with PE-conjugated anti-cytokine mAb and analyzed by flow cytometry.
# We also documented the T helper profile of each T cell clone, by stimulating the CD4 T cell clones with the cognate peptide, and analyzing cytokine production. All the clones expressed Th1 cytokines (TNFα, IFNγ, IL2 and GM-CSF). On the contrary, these clones differ in their expression of Th2 cytokines. Indeed, the two DQ2 restricted T cell clones (9C12 and 4E2) and the DR1 restricted one (5F9) also strongly express two Th2 cytokines (IL4, and IL13), whereas the DR11-restricted T cell clone only weakly expressed IL4 (Table IV). None of the CD4 T cell expresses IL10 or IL5 at a significant level.
# [3] = tested on: MELOE-1 specific CD4 T cells; experiment: MELOE-1 CD4+ T cell responses in PBMC from melanoma patients: restimulation with peptides, CD4/IFN-γ (Th1) and CD4/IL4 (Th2) staining; settings: for mean % of cytokine producing CD4 T cells, in positive microcultures (IFN-γ): Th1; for mean % of cytokine producing CD4 T cells, in positive microcultures (IL4): Th2; for Th1 responses (IFN-γ positive microcultures) / Th2 responses (IL4 positive microcultures): positive/tested microcultures
# Protocol: PBMC from melanoma patients were stimulated with 10 μM of MELOE-1. After 14 days, the presence of CD4 T cells specific for the different regions of MELOE-1 was assessed by restimulating cells with MELOE-12-21, MELOE-111-30 and MELOE-122-46 peptides, followed by CD4/IFN-γ double staining for the detection of Th1 responses, and by CD4/IL4 double staining for Th2 responses. Between brackets is indicated the mean % of cytokine producing CD4 T cells, in positive microcultures.
# as §1
# In order to confirm the immunogenicity of each MELOE-1 regions in melanoma patients, we stimulated melanoma patients PBMC with the MELOE-1 whole protein, and tested the reactivity of stimulated lymphocytes towards the three most immunogenic regions: 2-21, 11-30, and 22-46. For this study, instead of challenging microcultures with the 18-37 peptide, that appeared poorly immunogenic, we extended the C-terminus region from 26-46 to 22-46, in order to also detect responses to our previously described HLA-DR11-restricted epitope (24-37). […] We tested the induction of CD4 specific responses from MELOE-1 stimulated PBMC of […] melanoma patients. We documented CD4 responses specific for the central region of MELOE-1 (11-30) for 7/9 patients, whereas responses specific for MELOE-12-21 and MELOE-122-46 were respectively detected in 4/9 and 5/9 patients (Table III). These responses were mainly Th1 responses (IFN-g production) while less frequent Th2 responses specific for the three regions of MELOE-1 were detected in 3/9 patients for MELOE-12-21, 2/9 patients for MELOE-111-30 and 5/9 patients for MELOE-122-46 (Table III). […] Concerning Th2 responses, much less frequent, the C-term region appeared to induce more frequently the growth of IL-4 producing CD4 T cells than the two other regions (FIG. 2A). […] In summary, stimulation of patient's PBMC with MELOE-1 induced Th1 responses specific for diverse epitopes located all along the protein sequence, and among the different regions, the central region (11-30) and the C-term region (22-46) appeared to be especially immunogenic in term of frequency of responses.
# [4] = donor HD9 (DPβ1*0902/1501, DQβ1*0301, DRβ1*1104/1201)
# [5] = donor HD17 (DPβ1*0401/0301, DQβ1*0301/0603, DRβ1*1101/1301)
# [6] = donor HD22 (DPβ1*0401/1101, DQβ1*0202, DRβ1*0701)
# [7] = donor HD24 (DPβ1*0401/0101, DQβ1*0501/0602, DRβ1*0101/1501)
# [8] = donor HD25 (DPβ1*0401/0402, DQβ1*0201, DRβ1*0301)
# [9] = donor HD27 (DQβ1*501/0201, DRβ1*0101/0301)
sequence,measurement,setting,value
PSEGAACPPWHPSERISSTL [MELOE-118-37],"mean % of TNF-α producing CD4 T cells, in positive microcultures",[1]; donor HD9,(1.4% ± 0.6)
same,Microcultures containing MELOE-1 specific CD4+ T cells (TNF-α production),[1]; [4],6/96
same,"mean % of TNF-α producing CD4 T cells, in positive microcultures",[1]; donor HD17,(3% ± 0.7)
same,Microcultures containing MELOE-1 specific CD4+ T cells (TNF-α production),[1]; [5],7/96
same,Microcultures containing MELOE-1 specific CD4+ T cells (TNF-α production),[1]; [6],0/96
same,Microcultures containing MELOE-1 specific CD4+ T cells (TNF-α production),[1]; [7],0/96
same,Microcultures containing MELOE-1 specific CD4+ T cells (TNF-α production),[1]; [8],0/96
same,Microcultures containing MELOE-1 specific CD4+ T cells (TNF-α production),[1]; [9],0/96
same,Microcultures containing MELOE-1 specific CD4+ T cells (TNF-α production),[1]; donor HD28 (DRβ1*0301),0/48
same,% of positive microcultures,[1]; healthy donor HD9 (first of the two donors named),6%
same,% of positive microcultures,[1]; healthy donor HD17 (second of the two donors named),7%
same,donors in which CD4 responses against the region were detected,[1],2/7
PWHPSERISSTLNDECWPASL [MELOE-126-46],"mean % of TNF-α producing CD4 T cells, in positive microcultures",[1]; donor HD9,(1.5% ± 0.5)
same,Microcultures containing MELOE-1 specific CD4+ T cells (TNF-α production),[1]; [4],5/96
same,"mean % of TNF-α producing CD4 T cells, in positive microcultures",[1]; donor HD17,(5.2% ± 4.1)
same,Microcultures containing MELOE-1 specific CD4+ T cells (TNF-α production),[1]; [5],10/96
same,"mean % of TNF-α producing CD4 T cells, in positive microcultures",[1]; donor HD22,(1% ± 0.1)
same,Microcultures containing MELOE-1 specific CD4+ T cells (TNF-α production),[1]; [6],2/96
same,Microcultures containing MELOE-1 specific CD4+ T cells (TNF-α production),[1]; [7],0/96
same,"mean % of TNF-α producing CD4 T cells, in positive microcultures",[1]; donor HD25,(1.1% ± 0.9)
same,Microcultures containing MELOE-1 specific CD4+ T cells (TNF-α production),[1]; [8],15/96
same,Microcultures containing MELOE-1 specific CD4+ T cells (TNF-α production),[1]; [9],0/96
same,Microcultures containing MELOE-1 specific CD4+ T cells (TNF-α production),[1]; donor HD28 (DRβ1*0301),0/96
same,donors in which CD4 responses against the region were detected,[1],4 out of 7
same,Cytokine profile: GM-CSF,[2],GM-CSF^high
same,Cytokine profile: IFN,[2],IFN^high
same,Cytokine profile: IL2,[2],IL2^high
same,Cytokine profile: IL4,[2],IL4^high
same,Cytokine profile: IL5,[2],IL5^low
same,Cytokine profile: IL10,[2],IL10^neg
same,Cytokine profile: IL13,[2],IL13^high
same,Cytokine profile: TNF,[2],TNF^high
AACPPWHPSERISSTLNDECWPASL [MELOE-122-46],"Th1 responses, % of tested microcultures","[3]; 576 tested microcultures from melanoma patients, IFN-γ",9.6%
same,patients in which Th2 responses were detected,"[3]; melanoma patients, IL4",5/9
same,patients in which CD4 responses specific for the region were detected,"[3]; melanoma patients, Table III, Th1 (IFN-γ)",5/9
same,"mean % of cytokine producing CD4 T cells, in positive microcultures (IFN-γ)",[3]; patient Pt ≠ 1,(4.8% ± 7.2)
same,"mean % of cytokine producing CD4 T cells, in positive microcultures (IL4)",[3]; patient Pt ≠ 1,(0.8% ± 0.3)
same,Th1 responses (IFN-γ positive microcultures),[3]; patient Pt ≠ 1,11/48
same,Th2 responses (IL4 positive microcultures),[3]; patient Pt ≠ 1,4/48
same,"mean % of cytokine producing CD4 T cells, in positive microcultures (IFN-γ)",[3]; patient Pt ≠ 2,(0.6% ± 0.02)
same,Th1 responses (IFN-γ positive microcultures),[3]; patient Pt ≠ 2,2/96
same,Th2 responses (IL4 positive microcultures),[3]; patient Pt ≠ 2,0/96
same,Th1 responses (IFN-γ positive microcultures),"[3]; patient Pt ≠ 3 (DPβ1*0201/2001, DQβ1*0303/0501, DRβ1*0101/0701)",4/96
same,"mean % of cytokine producing CD4 T cells, in positive microcultures (IFN-γ)",[3]; patient Pt ≠ 3,(1.9% ± 1.3)
same,Th2 responses (IL4 positive microcultures),[3]; patient Pt ≠ 3,0/96
same,Th1 responses (IFN-γ positive microcultures),[3]; patient Pt ≠ 4,0/48
same,Th2 responses (IL4 positive microcultures),[3]; patient Pt ≠ 4,0/48
same,"mean % of cytokine producing CD4 T cells, in positive microcultures (IL4)",[3]; patient Pt ≠ 5,(0.8%)
same,Th1 responses (IFN-γ positive microcultures),[3]; patient Pt ≠ 5,0/48
same,Th2 responses (IL4 positive microcultures),[3]; patient Pt ≠ 5,1/48
same,Th1 responses (IFN-γ positive microcultures),[3]; patient Pt ≠ 6,0/48
same,Th2 responses (IL4 positive microcultures),[3]; patient Pt ≠ 6,0/48
same,"mean % of cytokine producing CD4 T cells, in positive microcultures (IFN-γ)",[3]; patient Pt ≠ 7,(2.9% ± 3.5)
same,"mean % of cytokine producing CD4 T cells, in positive microcultures (IL4)",[3]; patient Pt ≠ 7,(1.5% ± 0.7)
same,Th1 responses (IFN-γ positive microcultures),[3]; patient Pt ≠ 7,28/48
same,Th2 responses (IL4 positive microcultures),[3]; patient Pt ≠ 7,7/48
same,"mean % of cytokine producing CD4 T cells, in positive microcultures (IFN-γ)",[3]; patient Pt ≠ 8,(0.5%)
same,"mean % of cytokine producing CD4 T cells, in positive microcultures (IL4)",[3]; patient Pt ≠ 8,(0.6%)
same,Th1 responses (IFN-γ positive microcultures),[3]; patient Pt ≠ 8,1/48
same,Th2 responses (IL4 positive microcultures),[3]; patient Pt ≠ 8,1/48
same,"mean % of cytokine producing CD4 T cells, in positive microcultures (IL4)",[3]; patient Pt ≠ 9,(0.7% ± 0.15)
same,Th1 responses (IFN-γ positive microcultures),[3]; patient Pt ≠ 9,0/48
same,Th2 responses (IL4 positive microcultures),[3]; patient Pt ≠ 9,3/48
